Experimental data published in patent publication US11793823B2, “Compounds and pharmaceutical uses thereof” (SyneuRx International (Taiwan) Corp., priority 2020, dated 2023).

Biological target: human D-amino acid oxidase (hDAAO) (Homo sapiens (Human), UniProt P14920)
Test: In vitro human D-amino acid oxidase (hDAAO) activity, D-Serine/Amplex Red fluorescence
Type: biochemical
Details: D-Serine substrate, 20 min
Description: The hDAAO inhibitory activities were measured by using D-Serine as a substrate to produce H2O2. The produced H2O2 would be oxidized by peroxidase, and the produced free radicals would further react with Amplex Red reagent to emit fluorescence. The intensity of fluorescence at 590 nm would be measured to represent the activity of hDAAO. All compounds were dissolved in DMSO. Each compound was diluted with DMSO in 3-fold serial dilution to create a dose response curve. Each sample was added in triplicate, 1 µL/well, into 96-well black plates. Positive control wells were added with 1 μL of DMSO. Then 49 μL of assay buffer (100 mM Tris-HCl, pH 8.5) containing 1.2 ng/mL hDAAO, 900 nM FAD, 0.2 units/mL HRP, and 100 μM Amplex Red was added to each well of the plate using a multichannel pipette. Next, 50 μL of 100 mM D-Serine in assay buffer was added. The reaction plates were then incubated in the dark at room temperature. The fluorescence readout was detected at 0 and 20 mins by Molecular Device Gemini EM fluorescence reader using the following settings: excitation filter 530 nm, and emission filter 590 nm. The percentage of inhibition values for each well was calculated with the following equation: The percentage of inhibition=(fluorescence sample, 20 min−fluorescence sample, 0 min)/(fluorescence DMSO, 20 min−fluorescence DMSO, 0 min)×100%
The nonlinear curve fitting model in GraphPad Prism was used to calculate IC50 value for each compound.

human D-amino acid oxidase (hDAAO), sequence (P14920 whole entry): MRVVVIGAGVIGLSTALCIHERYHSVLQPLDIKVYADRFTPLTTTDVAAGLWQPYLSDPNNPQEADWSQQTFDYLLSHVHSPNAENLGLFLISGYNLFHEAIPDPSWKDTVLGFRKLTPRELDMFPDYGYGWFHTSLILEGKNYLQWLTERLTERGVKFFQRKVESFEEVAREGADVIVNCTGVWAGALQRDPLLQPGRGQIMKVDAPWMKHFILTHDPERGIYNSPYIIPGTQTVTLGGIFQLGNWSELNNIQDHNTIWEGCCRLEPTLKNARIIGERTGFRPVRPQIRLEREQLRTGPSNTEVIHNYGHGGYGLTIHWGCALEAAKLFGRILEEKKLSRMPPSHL

| Molecule | IC50 |
| --- | --- |
| O=C(O)c1cc(O)c(O)c(OC(=O)c2cc(O)c(O)c(OC(=O)c3cc(O)c(O)c(OC(=O)c4cc(O)c(O)c(OC(=O)c5cc(O)c(O)c(OC(=O)c6ccc[nH]6)c5)c4)c3)c2)c1 [Compound 25, 3-((3-((3-((3-((3-((1H-pyrrole-2-carbonyl)oxy)-4,5-dihydroxybenzoyl)oxy)-4,5-dihydroxybenzoyl)oxy)-4,5-dihydroxybenzoyl)oxy)-4,5-dihydroxybenzoyl)oxy)-4,5-dihydroxybenzoic acid] | 89 nM |
| 3-((3-((3-((3-((3-((3-((3-((1H-pyrrole-2-carbonyl)oxy)-4,5-dihydroxybenzoyl)oxy)-4,5-dihydroxybenzoyl)oxy)-4,5-dihydroxybenzoyl)oxy)-4,5-dihydroxybenzoic acid [Compound 28] | 82 nM |
| O=C(OC[C@H]1O[C@H](OC(=O)c2cc(O)c(O)c(OC(=O)c3cc(O)c(O)c(OC(=O)c4cc(O)c(O)c(OC(=O)c5cc(O)c(O)c(OC(=O)c6cc(O)c(O)c(O)c6)c5)c4)c3)c2)[C@H](OC(=O)c2cc(O)c(O)c(OC(=O)c3cc(O)c(O)c(OC(=O)c4cc(O)c(O)c(OC(=O)c5cc(O)c(O)c(OC(=O)c6cc(O)c(O)c(O)c6)c5)c4)c3)c2)[C@@H]1OC(=O)c1cc(O)c(O)c(OC(=O)c2cc(O)c(O)c(OC(=O)c3cc(O)c(O)c(OC(=O)c4cc(O)c(O)c(OC(=O)c5cc(O)c(O)c(O)c5)c4)c3)c2)c1)c1cc(O)c(O)c(OC(=O)c2cc(O)c(O)c(OC(=O)c3cc(O)c(O)c(OC(=O)c4cc(O)c(O)c(OC(=O)c5cc(O)c(O)c(O)c5)c4)c3)c2)c1 [Compound 140, (2R,3R,4R,5R)-5-(((3-((3-((3-((3,4-dihydroxy-5-((3,4,5-trihydroxybenzoyl)oxy)benzoyl)oxy)-4,5-dihydroxybenzoyl)oxy)-4,5-dihydroxybenzoyl)oxy)-4,5-dihydroxybenzoyl)oxy)methyl)tetrahydrofuran-2,3,4-triyl tris(3-((3-((3-((3,4-dihydroxy-5-((3,4,5-trihydroxybenzoyl)oxy)benzoyl)oxy)-4,5-dihydroxybenzoyl)oxy)-4,5-dihydroxybenzoyl)oxy)-4,5-dihydroxybenzoate)] | 3 nM |
| O=C(O)c1cc(O)c(O)c(OC(=O)c2cc(O)c(O)c(OC(=O)c3cc(O)c(O)c(OC(=O)c4cc(O)c(O)c(OC(=O)c5cc(O)c(O)c(OC(=O)c6cc(CCc7ccccc7)n[nH]6)c5)c4)c3)c2)c1 [Compound 34, 3-((3-((3-((3-((3,4-dihydroxy-5-((3-phenethyl-1H-pyrazole-5-carbonyl)oxy)benzoyl)oxy)-4,5-dihydroxybenzoyl)oxy)-4,5-dihydroxybenzoyl)oxy)-4,5-dihydroxybenzoyl)oxy)-4,5-dihydroxybenzoic acid] | 68 nM |
| O=C(OC[C@H]1O[C@@H](OC(=O)c2cc(O)c(O)c(OC(=O)c3cc(O)c(O)c(OC(=O)c4cc(O)c(O)c(OC(=O)c5cc(O)c(O)c(OC(=O)c6cc(O)c(O)c(O)c6)c5)c4)c3)c2)[C@H](OC(=O)c2cc(O)c(O)c(OC(=O)c3cc(O)c(O)c(OC(=O)c4cc(O)c(O)c(OC(=O)c5cc(O)c(O)c(OC(=O)c6cc(O)c(O)c(O)c6)c5)c4)c3)c2)[C@@H]1OC(=O)c1cc(O)c(O)c(OC(=O)c2cc(O)c(O)c(OC(=O)c3cc(O)c(O)c(OC(=O)c4cc(O)c(O)c(OC(=O)c5cc(O)c(O)c(O)c5)c4)c3)c2)c1)c1cc(O)c(O)c(OC(=O)c2cc(O)c(O)c(OC(=O)c3cc(O)c(O)c(OC(=O)c4cc(O)c(O)c(OC(=O)c5cc(O)c(O)c(O)c5)c4)c3)c2)c1 [Compound 148, (2S,3R,4R,5R)-5-(((3-((3-((3-((3,4-dihydroxy-5-((3,4,5-trihydroxybenzoyl)oxy)benzoyl)oxy)-4,5-dihydroxybenzoyl)oxy)-4,5-dihydroxybenzoyl)oxy)-4,5-dihydroxybenzoyl)oxy)methyl)tetrahydrofuran-2,3,4-triyl tris(3-((3-((3-((3,4-dihydroxy-5-((3,4,5-trihydroxybenzoyl)oxy)benzoyl)oxy)-4,5-dihydroxybenzoyl)oxy)-4,5-dihydroxybenzoyl)oxy)-4,5-dihydroxybenzoate)] | 4 nM |
| O=C(O)c1cc(O)c(O)c(OC(=O)c2cc(O)c(O)c(OC(=O)c3cc(O)c(O)c(OC(=O)c4cc(O)c(O)c(OC(=O)c5cc(O)c(O)c(OC(=O)c6cc(CCc7ccc(F)cc7)n[nH]6)c5)c4)c3)c2)c1 [Compound 50, 3-((3-((3-((3-((3-((3-(4-fluorophenethyl)-1H-pyrazole-5-carbonyl)oxy)-4,5-dihydroxybenzoyl)oxy)-4,5-dihydroxybenzoyl)oxy)-4,5-dihydroxybenzoyl)oxy)-4,5-dihydroxybenzoyl)oxy)-4,5-dihydroxybenzoic acid] | 38 nM |
| O=C(O)c1cc(O)c(O)c(OC(=O)c2cc(O)c(O)c(OC(=O)c3cc(O)c(O)c(OC(=O)c4cc(O)c(O)c(OC(=O)c5cc(O)c(O)c(OC(=O)c6cc(CCc7cccc8c7CCCC8)n[nH]6)c5)c4)c3)c2)c1 [Compound 42, 3-((3-((3-((3-((3,4-dihydroxy-5-((3-(2-(5,6,7,8-tetrahydronaphthalen-1-yl)ethyl)-1H-pyrazole-5-carbonyl)oxy)benzoyl)oxy)-4,5-dihydroxybenzoyl)oxy)-4,5-dihydroxybenzoyl)oxy)-4,5-dihydroxybenzoyl)oxy)-4,5-dihydroxybenzoic acid] | 31 nM |
| O=C(OC[C@H]1O[C@@H](OC(=O)c2cc(O)c(O)c(OC(=O)c3cc(O)c(O)c(O)c3)c2)[C@H](OC(=O)c2cc(O)c(O)c(OC(=O)c3cc(O)c(O)c(O)c3)c2)[C@@H]1OC(=O)c1cc(O)c(O)c(OC(=O)c2cc(O)c(O)c(O)c2)c1)c1cc(O)c(O)c(OC(=O)c2cc(O)c(O)c(O)c2)c1 [Compound 142, (2S,3R,4R,5R)-5-(((3,4-dihydroxy-5-((3,4,5-trihydroxybenzoyl)oxy)benzoyl)oxy)methyl)tetrahydrofuran-2,3,4-triyl tris(3,4-dihydroxy-5-((3,4,5-trihydroxybenzoyl)oxy)benzoate)] | 19 nM |
| O=C(Oc1cc(C(=O)Oc2cc(C(=O)O[C@@H]3OC[C@@H](OC(=O)c4cc(O)c(O)c(OC(=O)c5cc(O)c(O)c(OC(=O)c6cc(O)c(O)c(O)c6)c5)c4)[C@H](OC(=O)c4cc(O)c(O)c(OC(=O)c5cc(O)c(O)c(OC(=O)c6cc(O)c(O)c(O)c6)c5)c4)[C@H]3OC(=O)c3cc(O)c(O)c(OC(=O)c4cc(O)c(O)c(OC(=O)c5cc(O)c(O)c(O)c5)c4)c3)cc(O)c2O)cc(O)c1O)c1cc(O)c(O)c(O)c1 [Compound 126, (2S,3R,4S,5R)-tetrahydro-2H-pyran-2,3,4,5-tetrayl tetrakis(3-((3,4-dihydroxy-5-((3,4,5-trihydroxybenzoyl)oxy)benzoyl)oxy)-4,5-dihydroxybenzoate)] | 3.6 nM |
| O=C(O)c1cc(O)c(O)c(OC(=O)c2cc(O)c(O)c(OC(=O)c3cc(O)c(O)c(OC(=O)c4cc(O)c(O)c(O)c4)c3)c2)c1 [Compound 149, 3-((3-((3,4-dihydroxy-5-((3,4,5-trihydroxybenzoyl)oxy)benzoyl)oxy)-4,5-dihydroxybenzoyl)oxy)-4,5-dihydroxybenzoic acid] | 48 nM |
| O=C(Oc1cc(OC(=O)c2cc(O)c(O)c(OC(=O)c3cc(O)c(O)c(OC(=O)c4cc(O)c(O)c(OC(=O)c5cc(O)c(O)c(OC(=O)c6cc(O)c(O)c(O)c6)c5)c4)c3)c2)cc(OC(=O)c2cc(O)c(O)c(OC(=O)c3cc(O)c(O)c(OC(=O)c4cc(O)c(O)c(OC(=O)c5cc(O)c(O)c(OC(=O)c6cc(O)c(O)c(O)c6)c5)c4)c3)c2)c1)c1ccccc1 [Compound 103, 5-(benzoyloxy)-1,3-phenylene bis(3-((3-((3-((3,4-dihydroxy-5-((3,4,5-trihydroxybenzoyl)oxy)benzoyl)oxy)-4,5-dihydroxybenzoyl)oxy)-4,5-dihydroxybenzoyl)oxy)-4,5-dihydroxybenzoate)] | 7 nM |
| O=C(O)c1cc(O)c(O)c(OC(=O)c2cc(O)c(O)c(OC(=O)c3cc(O)c(O)c(OC(=O)c4cc(O)c(O)c(OC(=O)c5cc(O)c(O)c(OC(=O)c6cc(O)c(O)c(OC(=O)c7cc(O)c(O)c(O)c7)c6)c5)c4)c3)c2)c1 [Compound 22, 3-((3-((3-((3-((3-((3,4-dihydroxy-5-((3,4,5-trihydroxybenzoyl)oxy)benzoyl)oxy)-4,5-dihydroxybenzoyl)oxy)-4,5-dihydroxybenzoyl)oxy)-4,5-dihydroxybenzoyl)oxy)-4,5-dihydroxybenzoyl)oxy)-4,5-dihydroxybenzoic acid] | 63 nM |
| O=C(OC[C@H]1O[C@@H](OC(=O)c2cc(O)c(O)c(OC(=O)c3cc(O)c(O)c(OC(=O)c4cc(O)c(O)c(O)c4)c3)c2)[C@H](OC(=O)c2cc(O)c(O)c(OC(=O)c3cc(O)c(O)c(OC(=O)c4cc(O)c(O)c(O)c4)c3)c2)[C@@H]1OC(=O)c1cc(O)c(O)c(OC(=O)c2cc(O)c(O)c(OC(=O)c3cc(O)c(O)c(O)c3)c2)c1)c1cc(O)c(O)c(OC(=O)c2cc(O)c(O)c(OC(=O)c3cc(O)c(O)c(O)c3)c2)c1 [Compound 144, (2S,3R,4R,5R)-5-(((3-((3,4-dihydroxy-5-((3,4,5-trihydroxybenzoyl)oxy)benzoyl)oxy)-4,5-dihydroxybenzoyl)oxy)methyl)tetrahydrofuran-2,3,4-triyl tris(3-((3,4-dihydroxy-5-((3,4,5-trihydroxybenzoyl)oxy)benzoyl)oxy)-4,5-dihydroxybenzoate)] | 8 nM |
